# Measured values as given in US20250222038A1, “COLLAGEN MATRIX OR MEMBRANE WITH ANTIMICROBIAL PROPERTIES” (BIOCELLIX SPA, priority 2017, published 2025).
# Tests used:
# [1] = test system: Gram-negative bacteria (genus Proteus); test: Antibiotic sensitivity trial (inhibition halos on agar Müller-Hinton plate), Gram-negative isolate; assay type: cell-based; design: key to Plate 1 Sensitivity Level: Sensitive(S); Intermediate or Moderately sensitive (I); Resistant (R); conditions: Plate 1 = FIG. 2 left (Gram-negative bacteria); for Plate 1 (Gram-) (mm) inhibition halo: 18-24 hours at 37° C., average for three experiments; for Plate 1 Sensitivity Level: classified according to halo size
# Description: (§1) In order to assert the antimicrobial capability of the collagen matrix or membrane, lab testing was carried out. Patient biopsies were collected from different types of infected wounds (neuropathic diabetic foot and biofilms). These samples were homogenized and set to culture for 24 hours to observe if there was bacterial growth or not. When bacterial growth is observed, colonies of these cultures were isolated, and with them, a test for microbial sensitivity to the action of nanometals was carried out. […] In order for this trial to be performed, antibiotics commonly used for eliminating these bacteria and at set concentrations were used as controls. […] In order to analyze the effectiveness of copper nanometals and its effectiveness as antimicrobial agents, three concentrations, 1, 5 and 10 mg/ml, were used. […] The trial was carried out as follows: On the surface of an agar Müller-Hinton plate, 100 μl of a bacterial solution (OD600: 0.4) were inoculated and seeded evenly for bacterial colonies to grow. Then, filter paper discs soaked with known concentrations of the different antibiotics are placed. The antibiotic will spread from the agar filter paper radially. The plate was incubated for 18-24 hours at 37° C., and then the growth inhibition halos are measured by interpreting them according to the available data in databases. The results are expressed as: Sensitive(S), Intermediate or Moderately sensitive (I) and Resistant (R). […] To determine the inhibition halo, the diameter surrounding the sense disc on which bacterial growth was not observed was measured on the plate seeded with bacteria in the presence of different antibiotics. In this case, the inhibition halo is expressed in mm. According to the halo size, the bacteria are classified as sensitive to the antibiotic action, resistant to the antibiotic action or of intermediate resistance to the antibiotic action (data that is published in databases). […] Additionally, the purpose of this trial is to rule out that the matrix alone presents some level of antimicrobial action, therefore, a copper-free matrix was used as control. […] Gram-negative bacteria belong to genus Proteus, and Gram-positive bacteria belong to genus Staphylococcus.
# [2] = test system: Gram-positive bacteria (genus Staphylococcus); test: Antibiotic sensitivity trial (inhibition halos on agar Müller-Hinton plate), Gram-positive isolate; assay type: cell-based; design: key to Plate 2 Sensitivity Level: Sensitive(S); Intermediate or Moderately sensitive (I); Resistant (R); conditions: Plate 2 = FIG. 2 right (Gram-positive bacteria); for Plate 2 (Gram+) (mm) inhibition halo: 18-24 hours at 37° C., average for three experiments; for Plate 2 Sensitivity Level: classified according to halo size
# Description: as §1
SMILES,Plate 1 (Gram-) (mm) inhibition halo [1],Plate 1 Sensitivity Level [1],Plate 2 (Gram+) (mm) inhibition halo [2],Plate 2 Sensitivity Level [2]
"CC1(C)S[C@@H]2[C@H](NC(=O)[C@H](N)c3ccccc3)C(=O)N2[C@H]1C(=O)O [AM, Ampicillin]",0 mm,Resistant,12 mm,Intermediate
"O=C(O)c1cn(C2CC2)c2cc(N3CCNCC3)c(F)cc2c1=O [CIP, Ciprofloxacin]",28 mm,–,19 mm,–
"CC[C@H]1OC(=O)[C@H](C)[C@@H](O[C@H]2C[C@@](C)(OC)[C@@H](O)[C@H](C)O2)[C@H](C)[C@@H](O[C@@H]2O[C@H](C)C[C@H](N(C)C)[C@H]2O)[C@](C)(OC)C[C@@H](C)C(=O)[C@H](C)[C@@H](O)[C@]1(C)O [CLR, Clarithromycin]",15 mm,Intermediate,18 mm,Sensitive
